Assays:
Assay type in all cases: cell-based, human
[1] = tested on: E-selectin, ICAM-1 and VCAM-1 expression on T. cruzi-infected EA.hy926 and HUVEC cells; test: Endothelial cell adhesion molecule surface expression by flow cytometry / immunofluorescence; details: EA.hy926
Experimental: Then, cells were infected with trypomastigotes at a MOI of 10 and incubated for 16 hours. Cells were detached with 1X EDTA-PBS at 0.5 mM. The harvested cells were washed with cold PBS and centrifuged at 800 x g for 5 minutes. Then, cells were washed with flow cytometry buffer three times. 100 μL of cell suspensions were incubated for 45 min at 4°C in the dark with mouse monoclonal anti- human E-selectin (5 μL undiluted), ICAM-1(3 μL undiluted), and VCAM-1 (1 μL undiluted) that were conjugated with PE, FITC and APC, respectively (BioLegend, USA). Cell suspensions were analyzed by flow cytometry using a FACSAria-III flow cytometer (BD Biosciences, USA). A homogeneous cell population was selected by size vs. granularity in log scale for these two conditions.
2x10^4 EA.hy926 cells/slide were seeded in Lab-Tek II Chamber Slide^TM (ThermoScientific, USA) and allowed to adhere overnight. […] After 16 hours of infection, cells were fixed in 4% formaldehyde–0.1 M phosphate buffer (pH 7.3) for 10 min. Cells were blocked with 3% bovine serum albumin for 1 hour. Then, cells were incubated with monoclonal antibodies against E-selectin (1:100), VCAM-1 (1:250) and ICAM-1 (1:100) (from Abcam, UK) overnight at 4°C. The samples were washed with PBS and incubated with anti-rabbit IgG that had been conjugated with fluorescein (1:100) from Sigma-Aldrich for 1 h. Finally, nuclei were stained with DAPI for 5 minutes and mounted with Dako Fluorescence Mounting (Dako, USA). The cells were photographed using a Nikon Eclipse 400 fluorescence microscope (Nikon, Japan), and images were analyzed by mean intensity using ImageJ software (ImageJ 1.47v).

[2] = tested on: NF-κB pathway (p-IKK, p-IκB) in T. cruzi-infected EA.hy926 cells; test: IKK and IκB phosphorylation by Western blot; details: exogenous 15-epi-LXA4 for 24 hours before T. cruzi 1 hour
Experimental: 5x10^5 endothelial cells were rinsed once with PBS and scraped. Proteins were extracted into 100 μL RIPA buffer plus a protease and phosphatase inhibitor cocktail (Radio-Immunoprecipitation Assay; Millipore Corporation, USA) at 4°C. Total protein was quantified with the Lowry assay. Samples in loading buffer (10% SDS, 50% glycerol, 0.5 M Tris, 0.1% bromophenol blue, and 1 M dithiothreitol, pH 6.8) were electrophoretically separated by 10% SDS-PAGE and transferred to a nitrocellulose membrane. Nitrocellulose membranes were incubated with blocking solution (5% w/v nonfat dry milk, 0.1% Tween-20 in Tris-buffered saline) at room temperature for 1 hour. Then, the membranes were incubated at 4°C overnight with 1 mL solution of primary antibodies against E-selectin (1:1000) and α-Tubulin (1:10.000) from Sigma-Aldrich, ICAM-1 (1:2000) and VCAM-1 (1:1000) from Abcam, 7 ml solution of p-IKK (1:1000), IKK (1:1000), p-IκB (1:1000) and IκB (1:1000) from Cell signaling (Cell Signaling Technologies, USA). Bound antibodies were detected with horseradish peroxidase-conjugated secondary antibodies and visualized by Lumminata forte (Millipore). The nitrocellulose was stripped between reprobes using Mild stripping (Millipore) for 10 minutes. Developed films were scanned, and band densitometry was analyzed using ImageJ software (ImageJ 1.47v).

[3] = tested on: NF-κB p65 in T. cruzi-infected EA.hy926 cells; test: Nuclear p65 localization by confocal microscopy; details: 100 nM 15-epi-LXA4 before T. cruzi 1 hour
Experimental: 2x10^4 EA.hy926 cells were seeded in Lab-Tek II Chamber Slides^TM for 12 hours. Cells were fixed in 3.7% formaldehyde–0.1 M phosphate buffer (pH 7.3) for 10 min. They were then washed with cytoskeletal buffer followed by permeabilization for 5 min with Triton-X100 0.5%. Cells were blocked with 3% bovine serum albumin for 1 hour. […] The samples were washed with PBS and incubated with anti-rabbit IgG conjugated with fluorescein (1:100) from Sigma-Aldrich for 1 hour. Finally, nuclei were stained with DAPI for 5 minutes and mounted in Dako fluorescence mounting media. The cells were photographed and ten pictures per well were obtained; images were analyzed using ImageJ software (ImageJ 1.47v).

SMILES: CCCCC[C@@H](O)/C=C/C=C\C=C\C=C\[C@@H](O)[C@@H](O)CCCC(=O)O [15-epi-LXA4, 15-epi-lipoxin A4]
- Endothelial adhesion molecule expression ([1]; 1 and 10 nM 15-epi-LXA4 for 24 hours before 16 hours infection): reduced endothelial adhesion molecule expression
- IKK-IκB pathway activity [2]: decreased IKK-IκB pathway activity in a dose-dependent fashion
- Nuclear p65 migration [3]: decreased nuclear p65 migration

SMILES: CC1=C(C)C(=O)C(CCCCC#CCCCC#CCO)=C(C)C1=O [AA-861, 2-(12-hydroxydodeca-5,10-diynyl)-3,5,6-trimethyl-p-benzoquinone]
- ICAM expression in presence of simvastatin plus 5-lipoxygenase inhibitor ([1]; 5 μM simvastatin with AA-861 (50 μM) for 24 hours before 16 hours infection): ICAM expression was restored

Reference: paper PMC4433340 (PLoS Neglected Tropical Diseases, 2015)
